# Tested on: MV-4-11 cells
# Assay: Gene expression microarray analysis (Affymetrix PrimeView) and GSEA
# Format: cell-based, human
# Set-up: RFU PODN (11730768_x_at) / Fold change /veh PODN (11730768_x_at) / RFU LINC00158 (11744669_a_at) / Fold change /veh LINC00158 (11744669_a_at) / RFU DUSP10 (11751237_a_at) / Fold change /veh DUSP10 (11751237_a_at) / RFU ID3 (11757404_x_at) / Fold change /veh ID3 (11757404_x_at) / RFU PLEKHG5 (11737974_s_at) / Fold change /veh PLEKHG5 (11737974_s_at) / RFU LRRC4B (11730491_at) / Fold change /veh LRRC4B (11730491_at) / RFU GIMAP4 (11747438_a_at) / Fold change /veh GIMAP4 (11747438_a_at) / RFU KRT8 (11758183_x_at) / Fold change /veh KRT8 (11758183_x_at) / RFU CNN1 (11734310_a_at) / Fold change /veh CNN1 (11734310_a_at) / RFU VPS37D (11726825_at) / Fold change /veh VPS37D (11726825_at) / RFU C10orf10 (11716522_x_at) / Fold change /veh C10orf10 (11716522_x_at) / RFU KIR2DL2 /// KIR2DL4 /// KIR2DL5A /// KIR2DL5B /// KIR2DS1 /// KIR2DS2 /// KIR2DS3 /// KIR2DS4 /// KIR3DL3 /// KIR3DL3 /// KIR3DS1 (11738374_at) / Fold change /veh KIR2DL2 /// KIR2DL4 /// KIR2DL5A /// KIR2DL5B /// KIR2DS1 /// KIR2DS2 /// KIR2DS3 /// KIR2DS4 /// KIR3DL3 /// KIR3DL3 /// KIR3DS1 (11738374_at) / RFU C1QL1 (11718748_at) / Fold change /veh C1QL1 (11718748_at) / RFU TMPRSS4 (11747572_a_at) / Fold change /veh TMPRSS4 (11747572_a_at) / RFU HAMP (11756126_x_at) / Fold change /veh HAMP (11756126_x_at) / RFU RNFT2 (11725882_a_at) / Fold change /veh RNFT2 (11725882_a_at) / RFU NR4A2 (11747474_a_at) / Fold change /veh NR4A2 (11747474_a_at) / RFU ABCC12 (11746883_a_at) / Fold change /veh ABCC12 (11746883_a_at) / RFU TMEM136 (11760407_x_at) / Fold change /veh TMEM136 (11760407_x_at) / RFU CLDN22 /// WWC2 (11732394_at) / Fold change /veh CLDN22 /// WWC2 (11732394_at) / RFU HLA-DPB1 (11760878_x_at) / Fold change /veh HLA-DPB1 (11760878_x_at) / RFU SPINT1 (11716480_a_at) / Fold change /veh SPINT1 (11716480_a_at) / RFU GAP43 (11754022_s_at) / Fold change /veh GAP43 (11754022_s_at) / RFU A4GNT (11735810_at) / Fold change /veh A4GNT (11735810_at) / RFU PRB3 (11715151_x_at) / Fold change /veh PRB3 (11715151_x_at) / RFU TUBB4B (11761932_at) / Fold change /veh TUBB4B (11761932_at) / RFU CAPN14 (11732068_a_at) / Fold change /veh CAPN14 (11732068_a_at) / RFU TMCC2 (11721928_a_at) / Fold change /veh TMCC2 (11721928_a_at) / RFU IRGQ (11745062_a_at) / Fold change /veh IRGQ (11745062_a_at) / RFU FAM174B (11720279_a_at) / Fold change /veh FAM174B (11720279_a_at) / RFU TMPRSS4 (11748680_a_at) / Fold change /veh TMPRSS4 (11748680_a_at) / RFU FAM212B (11763350_a_at) / Fold change /veh FAM212B (11763350_a_at) / RFU PLEKHG5 (11743358_a_at) / Fold change /veh PLEKHG5 (11743358_a_at) / RFU ZSCAN30 (11745921_a_at) / Fold change /veh ZSCAN30 (11745921_a_at) / RFU CMKLR1 (11741424_a_at) / Fold change /veh CMKLR1 (11741424_a_at) / RFU LOC101060620 /// MAPK8IP1 (11723275_at) / Fold change /veh LOC101060620 /// MAPK8IP1 (11723275_at) / RFU SPTSSB (11747773_x_at) / Fold change /veh SPTSSB (11747773_x_at) / RFU PRSS12 (11739890_at) / Fold change /veh PRSS12 (11739890_at) / RFU BIN1 (11741810_x_at) / Fold change /veh BIN1 (11741810_x_at) / RFU WNT11 (11732464_a_at) / Fold change /veh WNT11 (11732464_a_at) / RFU C10orf10 (11716521_a_at) / Fold change /veh C10orf10 (11716521_a_at) / RFU C5orf56 (11738089_at) / Fold change /veh C5orf56 (11738089_at) / RFU CYB561 (11721691_x_at) / Fold change /veh CYB561 (11721691_x_at) / RFU ANKRD19P (11752326_a_at) / Fold change /veh ANKRD19P (11752326_a_at) / RFU OR2T12 /// OR2T33 /// OR2T8 (11738714_s_at) / Fold change /veh OR2T12 /// OR2T33 /// OR2T8 (11738714_s_at) / RFU VCAN (11748164_a_at) / Fold change /veh VCAN (11748164_a_at) / RFU JSRP1 (11732532_at) / Fold change /veh JSRP1 (11732532_at) / RFU KRTAP10-11 (11738290_x_at) / Fold change /veh KRTAP10-11 (11738290_x_at) / RFU MYO3A (11730013_a_at) / Fold change /veh MYO3A (11730013_a_at) / RFU EBF3 (11725865_a_at) / Fold change /veh EBF3 (11725865_a_at) / RFU CAMK2N1 (11719241_x_at) / Fold change /veh CAMK2N1 (11719241_x_at) / RFU C5orf56 (11738088_a_at) / Fold change /veh C5orf56 (11738088_a_at) / RFU OLFML3 (11715873_a_at) / Fold change /veh OLFML3 (11715873_a_at) / RFU LOC100653217 /// NTM (11731650_a_at) / Fold change /veh LOC100653217 /// NTM (11731650_a_at) / RFU MAPK11 (11762145_a_at) / Fold change /veh MAPK11 (11762145_a_at) / RFU FIZ1 (11724087_x_at) / Fold change /veh FIZ1 (11724087_x_at) / RFU OASL (11726364_x_at) / Fold change /veh OASL (11726364_x_at) / RFU SOX15 (11748057_x_at) / Fold change /veh SOX15 (11748057_x_at) / RFU CD79A (11719716_a_at) / Fold change /veh CD79A (11719716_a_at) / RFU HIST1H1D (11736915_at) / Fold change /veh HIST1H1D (11736915_at) / RFU CASKIN2 (11723855_a_at) / Fold change /veh CASKIN2 (11723855_a_at) / RFU LOC730098 (11760151_x_at) / Fold change /veh LOC730098 (11760151_x_at) / RFU OR4N2 (11742367_at) / Fold change /veh OR4N2 (11742367_at) / RFU PRRT2 (11749266_a_at) / Fold change /veh PRRT2 (11749266_a_at) / RFU SNX32 (11753110_a_at) / Fold change /veh SNX32 (11753110_a_at) / RFU CDHR5 (11726645_a_at) / Fold change /veh CDHR5 (11726645_a_at) / RFU RCAN1 (11760418_a_at) / Fold change /veh RCAN1 (11760418_a_at) / RFU FAM167A (11723789_a_at) / Fold change /veh FAM167A (11723789_a_at) / RFU FAM26E (11764081_at) / Fold change /veh FAM26E (11764081_at) / RFU ISYNA1 (11749810_s_at) / Fold change /veh ISYNA1 (11749810_s_at) / RFU ACY1 (11761880_at) / Fold change /veh ACY1 (11761880_at) / RFU 11764098_at / Fold change /veh 11764098_at / RFU SAMD14 (11745864_x_at) / Fold change /veh SAMD14 (11745864_x_at) / RFU NPB (11741838_a_at) / Fold change /veh NPB (11741838_a_at) / RFU TMPRSS6 (11731388_a_at) / Fold change /veh TMPRSS6 (11731388_a_at) / RFU KRTAP10-2 (11738614_at) / Fold change /veh KRTAP10-2 (11738614_at) / RFU ARHGAP8 /// PRR5-ARHGAP8 (11727945_x_at) / Fold change /veh ARHGAP8 /// PRR5-ARHGAP8 (11727945_x_at) / RFU KRTAP5-7 /// NADSYN1 (11734609_at) / Fold change /veh KRTAP5-7 /// NADSYN1 (11734609_at) / RFU RASL12 (11751679_a_at) / Fold change /veh RASL12 (11751679_a_at) / RFU CDKN2B (11736163_a_at) / Fold change /veh CDKN2B (11736163_a_at) / RFU PRF1 (11729649_at) / Fold change /veh PRF1 (11729649_at) / RFU, ZNF638 /// ZNF638-IT1 / Fold change vs veh, ZNF638 /// ZNF638-IT1 / RFU, PANK3 / Fold change vs veh, PANK3 / RFU, SH3YL1 / Fold change vs veh, SH3YL1 / RFU, ZEB2 / Fold change vs veh, ZEB2 / RFU, NRIP1 / Fold change vs veh, NRIP1 / RFU, PTTG1IP / Fold change vs veh, PTTG1IP / RFU, CAPN2 / Fold change vs veh, CAPN2 / RFU, MED14 / Fold change vs veh, MED14 / RFU, SNORA58 / Fold change vs veh, SNORA58 / RFU, C1orf63 / Fold change vs veh, C1orf63 / RFU, LRRFIP1 / Fold change vs veh, LRRFIP1 / RFU, NDUFAF7 / Fold change vs veh, NDUFAF7 / RFU, SLC12A2 / Fold change vs veh, SLC12A2 / RFU, IBTK / Fold change vs veh, IBTK / RFU, ESF1 / Fold change vs veh, ESF1 / Fold change vs veh, TMEM50B / RFU, TAOK1 / Fold change vs veh, TAOK1 / RFU, ACBD3 / Fold change vs veh, ACBD3 / RFU, TMA16 / Fold change vs veh, TMA16 / RFU, RWDD3 / Fold change vs veh, RWDD3 / RFU, BCAT1 / Fold change vs veh, BCAT1 / RFU, EDEM3 / Fold change vs veh, EDEM3 / RFU, TMEM33 / Fold change vs veh, TMEM33 / RFU, WDR75 / Fold change vs veh, WDR75 / RFU, AHCTF1 / Fold change vs veh, AHCTF1 / RFU, TFRC / Fold change vs veh, TFRC / RFU, ZDHHC17 / Fold change vs veh, ZDHHC17 / RFU, NOM1 / Fold change vs veh, NOM1 / RFU, ARL8B / Fold change vs veh, ARL8B / RFU, ZBTB11 / Fold change vs veh, ZBTB11 / RFU, TAMM41 / Fold change vs veh, TAMM41 / RFU, KIAA1704 /// LOC100996395 / Fold change vs veh, KIAA1704 /// LOC100996395 / RFU, ING1 / Fold change vs veh, ING1 / RFU, TRMT61B / Fold change vs veh, TRMT61B / RFU, FUBP3 / Fold change vs veh, FUBP3 / RFU, TP53 / Fold change vs veh, TP53 / RFU, TNKS2 / Fold change vs veh, TNKS2 / RFU, ZFP14 / Fold change vs veh, ZFP14 / RFU, ACTR2 / Fold change vs veh, ACTR2 / RFU, PPP3R1 / Fold change vs veh, PPP3R1 / RFU, PIK3R1 / Fold change vs veh, PIK3R1 / RFU, HNRNPA1 / Fold change vs veh, HNRNPA1 / RFU, RNF170 / Fold change vs veh, RNF170 / RFU, ZNF28 / Fold change vs veh, ZNF28 / RFU, RNGTT / Fold change vs veh, RNGTT / RFU, OGT / Fold change vs veh, OGT / RFU, BRD1 / Fold change vs veh, BRD1 / RFU, MARS / Fold change vs veh, MARS / RFU, ZNF655 / Fold change vs veh, ZNF655 / RFU, FAHD1 / Fold change vs veh, FAHD1 / RFU, BDP1 / Fold change vs veh, BDP1 / RFU, LRRCC1 / Fold change vs veh, LRRCC1 / RFU, ARID1A / Fold change vs veh, ARID1A / RFU, ZNF146 / Fold change vs veh, ZNF146 / RFU, ZNF330 / Fold change vs veh, ZNF330 / RFU, GPN3 / Fold change vs veh, GPN3 / RFU, C9orf123 / Fold change vs veh, C9orf123 / RFU, N4BP2L2 / Fold change vs veh, N4BP2L2 / RFU, ARFIP1 / Fold change vs veh, ARFIP1 / RFU, FAM179B / Fold change vs veh, FAM179B / RFU, BCL10 / Fold change vs veh, BCL10 / RFU, UHRF1BP1L / Fold change vs veh, UHRF1BP1L / RFU, BET1 / Fold change vs veh, BET1 / RFU, CNOT2 / Fold change vs veh, CNOT2 / RFU, ZNF268 / Fold change vs veh, ZNF268 / Fold change vs veh, ZNF507 / RFU, DGCR2 / Fold change vs veh, DGCR2 / RFU, WDSUB1 / Fold change vs veh, WDSUB1 / Fold change vs veh, HSP90B1 /// MIR3652 / RFU, ADSS / Fold change vs veh, ADSS / RFU, GK / Fold change vs veh, GK / RFU, ZNF148 / Fold change vs veh, ZNF148 / RFU, TAF9 / Fold change vs veh, TAF9 / RFU, SLC1A5 / Fold change vs veh, SLC1A5 / RFU, SLMO2 / Fold change vs veh, SLMO2 / RFU, ABCC4 / Fold change vs veh, ABCC4 / RFU, LOC101060439 /// RAP1B / Fold change vs veh, LOC101060439 /// RAP1B / RFU, RFX7 / Fold change vs veh, RFX7 / RFU, GTPBP10 / Fold change vs veh, GTPBP10 / RFU, CNEP1R1 / Fold change vs veh, CNEP1R1 / RFU, BIVM-ERCC5 /// ERCC5 / Fold change vs veh, BIVM-ERCC5 /// ERCC5 / RFU, ILF3 / Fold change vs veh, ILF3 / RFU 11762660_at / Fold change /veh 11762660_at / RFU VCAN (11757783_s_at) / Fold change /veh VCAN (11757783_s_at) / RFU DDX43 (11728927_at) / Fold change /veh DDX43 (11728927_at) / RFU KRT8 (11758188_x_at) / Fold change /veh KRT8 (11758188_x_at) / RFU NKD1 (11759106_at) / Fold change /veh NKD1 (11759106_at) / RFU SRD5A1 (11742802_a_at) / Fold change /veh SRD5A1 (11742802_a_at) / RFU TPSAB1 /// TPSB2 (11721975_s_at) / Fold change /veh TPSAB1 /// TPSB2 (11721975_s_at) / RFU GSTM3 (11746129_a_at) / Fold change /veh GSTM3 (11746129_a_at) / RFU IL23R (11737362_x_at) / Fold change /veh IL23R (11737362_x_at) / RFU TMEM51 (11727254_a_at) / Fold change /veh TMEM51 (11727254_a_at) / RFU PIWIL2 (11732686_x_at) / Fold change /veh PIWIL2 (11732686_x_at) / RFU ORM1 (11744905_x_at) / Fold change /veh ORM1 (11744905_x_at) / RFU CCDC152 (11743942_at) / Fold change /veh CCDC152 (11743942_at) / RFU ECM1 (11717891_a_at) / Fold change /veh ECM1 (11717891_a_at) / RFU IL23R (11748794_a_at) / Fold change /veh IL23R (11748794_a_at) / RFU TNFAIP8L3 (11732012_x_at) / Fold change /veh TNFAIP8L3 (11732012_x_at) / RFU MBOAT4 (11741988_at) / Fold change /veh MBOAT4 (11741988_at) / RFU 11764193_at / Fold change /veh 11764193_at / RFU TMEM53 (11763286_at) / Fold change /veh TMEM53 (11763286_at) / RFU MAGEB2 (11727129_at) / Fold change /veh MAGEB2 (11727129_at) / RFU TMEM200A (11744735_a_at) / Fold change /veh TMEM200A (11744735_a_at) / RFU CCDC152 (11751479_a_at) / Fold change /veh CCDC152 (11751479_a_at) / RFU FAM211A (11726209_a_at) / Fold change /veh FAM211A (11726209_a_at) / RFU RGS16 (11746705_a_at) / Fold change /veh RGS16 (11746705_a_at) / RFU VCAN (11755009_s_at) / Fold change /veh VCAN (11755009_s_at) / RFU RHOB (11743442_s_at) / Fold change /veh RHOB (11743442_s_at) / RFU RGS16 (11720943_a_at) / Fold change /veh RGS16 (11720943_a_at) / RFU RGS16 (11720944_at) / Fold change /veh RGS16 (11720944_at) / RFU, VPS4B / Fold change vs veh, VPS4B / RFU, CREB1 / Fold change vs veh, CREB1 / RFU, DNAJC13 / Fold change vs veh, DNAJC13 / RFU, GNAQ / Fold change vs veh, GNAQ / RFU, CDK5R1 / Fold change vs veh, CDK5R1 / RFU, ZRANB3 / Fold change vs veh, ZRANB3 / RFU, CUL4A / Fold change vs veh, CUL4A / RFU, CCNY / Fold change vs veh, CCNY / RFU, UFL1 / Fold change vs veh, UFL1 / RFU, COG3 / Fold change vs veh, COG3 / RFU, DIAPH2 / Fold change vs veh, DIAPH2 / RFU, SKA2 / Fold change vs veh, SKA2 / RFU, AFF3 / Fold change vs veh, AFF3 / RFU, LMF1 / Fold change vs veh, LMF1 / RFU, IPO11 / Fold change vs veh, IPO11 / RFU, DFFB / Fold change vs veh, DFFB / RFU, FOXP1 / Fold change vs veh, FOXP1 / RFU, CARD8 / Fold change vs veh, CARD8 / RFU, STRN3 / Fold change vs veh, STRN3 / RFU, ADK / Fold change vs veh, ADK / RFU, RASSF2 / Fold change vs veh, RASSF2 / RFU, WIPF1 / Fold change vs veh, WIPF1 / RFU, LARP1B / Fold change vs veh, LARP1B / RFU, RASA1 / Fold change vs veh, RASA1 / RFU, RB1 / Fold change vs veh, RB1 / RFU, PPFIA1 / Fold change vs veh, PPFIA1 / RFU, MAT2A / Fold change vs veh, MAT2A / RFU, CCT5 / Fold change vs veh, CCT5 / RFU, WDR92 / Fold change vs veh, WDR92 / RFU, CUX1 / Fold change vs veh, CUX1 / RFU, TTC7A / Fold change vs veh, TTC7A / RFU, TMEM135 / Fold change vs veh, TMEM135 / RFU, DEPTOR / Fold change vs veh, DEPTOR / RFU, CPM / Fold change vs veh, CPM / RFU, DNAJB6 / Fold change vs veh, DNAJB6 / RFU, CACNA2D3 / Fold change vs veh, CACNA2D3 / RFU, DTX4 / Fold change vs veh, DTX4 / RFU, TFCP2 / Fold change vs veh, TFCP2 / RFU, GMCL1 /// GMCL1P1 / Fold change vs veh, GMCL1 /// GMCL1P1 / RFU, AEBP2 / Fold change vs veh, AEBP2 / RFU, SNHG1 /// SNORD22 /// SNORD25 /// SNORD26 /// SNORD27 /// SNORD28 /// SNORD29 /// SNORD31 / Fold change vs veh, SNHG1 /// SNORD22 /// SNORD25 /// SNORD26 /// SNORD27 /// SNORD28 /// SNORD29 /// SNORD31 / Fold change (Aza/veh), C12orf56 (ProbeSet 11735607_a_at) / Fold change (ACY-1035/veh), C12orf56 (ProbeSet 11735607_a_at) / Fold change (Aza/veh), FGFR1OP (ProbeSet 11751329_s_at) / Fold change (ACY-1035/veh), FGFR1OP (ProbeSet 11751329_s_at) / Fold change (Aza/veh), VPS36 (ProbeSet 11739960_a_at) / Fold change (ACY-1035/veh), VPS36 (ProbeSet 11739960_a_at) / RFU SYPL1 (11715823_x_at) / Fold change /veh SYPL1 (11715823_x_at) / RFU IGFBP7 (11715501_s_at) / Fold change /veh IGFBP7 (11715501_s_at) / RFU REEP3 (11722064_at) / Fold change /veh REEP3 (11722064_at) / RFU IGLL1 (11728026_x_at) / Fold change /veh IGLL1 (11728026_x_at): dose or concentration left out as unconfirmed
# Settings: ProbeSet 11732154_at; LIST B
compound,measurement,value
Nc1ncn([C@@H]2O[C@H](CO)[C@@H](O)[C@H]2O)c(=O)n1 [azacitidine],"RFU, OGT",289.66 RFU

# From PMC5218480 (PLoS ONE, 2017)
